Where “and” joins values, the source holds several entries; their conditions need not be identical. Equal entries are not always repeated.
What was measured:
[1] = molecular target: hCA I (Homo sapiens, UniProt P00915); details: read-out: KI hCA I; stopped-flow CO2 hydrase assay; mean from three different assays, errors ±5–10%
[2] = molecular target: T1, hCA IX (Homo sapiens, UniProt Q16790); assay type: biochemical
T1 construct: made in house

[3] = molecular target: T2, TRPV1 receptor (Homo sapiens, UniProt Q8NER1); assay: TRPV1 assay, Fluo-4NW fluorescence in SH-SY5Y-TRPV1 cells; assay type: cell-based; details: read-out: EC50 on TRPV1 receptor activity (agonism)
T2 construct: expressed in transfected cells
T2 sequence (Q8NER1 whole entry): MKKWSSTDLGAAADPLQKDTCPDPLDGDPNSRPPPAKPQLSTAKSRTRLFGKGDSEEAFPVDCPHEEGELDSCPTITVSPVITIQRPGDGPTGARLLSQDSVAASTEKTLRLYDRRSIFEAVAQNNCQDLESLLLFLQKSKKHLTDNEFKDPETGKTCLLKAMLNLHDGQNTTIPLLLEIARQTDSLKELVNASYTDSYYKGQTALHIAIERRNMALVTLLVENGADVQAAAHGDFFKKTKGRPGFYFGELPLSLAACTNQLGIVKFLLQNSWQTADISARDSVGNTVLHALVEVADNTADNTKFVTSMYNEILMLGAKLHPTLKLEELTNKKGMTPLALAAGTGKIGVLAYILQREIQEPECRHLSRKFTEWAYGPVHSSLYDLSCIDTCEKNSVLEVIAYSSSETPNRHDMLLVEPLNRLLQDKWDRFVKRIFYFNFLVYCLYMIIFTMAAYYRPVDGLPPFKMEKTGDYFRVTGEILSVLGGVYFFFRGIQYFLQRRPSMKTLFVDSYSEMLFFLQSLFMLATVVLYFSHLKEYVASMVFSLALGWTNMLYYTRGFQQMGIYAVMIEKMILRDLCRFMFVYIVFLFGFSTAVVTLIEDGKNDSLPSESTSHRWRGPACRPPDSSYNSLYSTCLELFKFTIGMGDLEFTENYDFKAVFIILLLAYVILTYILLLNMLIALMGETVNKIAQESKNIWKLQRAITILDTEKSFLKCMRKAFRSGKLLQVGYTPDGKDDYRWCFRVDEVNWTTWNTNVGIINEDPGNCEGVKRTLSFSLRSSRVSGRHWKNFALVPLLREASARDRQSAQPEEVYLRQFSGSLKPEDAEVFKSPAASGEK
Experimental: SH-SY5Y-TRPV1 cells (kindly provided by Johanna Lilja and Anna Forsby (University of Stockholm, Stockholm, Sweden))[40] were cultured in 96 wells. Upon 90% confluence had been reached, the cells were loaded with 5 μM Fluo-4NW for 1 h at 37 °C. […] Briefly, after measuring the basal fluorescence of the plate (four cycles), testing compounds were added to the plate, and the fluorescence was measured for additional 10 cycles; thereafter, 10 μM capsaicin was added with a microinjector and the fluorescence was monitored for an additional 10 cycles.

[4] = molecular target: hCA VII (Homo sapiens, UniProt P43166); details: read-out: KI hCA VII; stopped-flow CO2 hydrase assay; mean from three different assays, errors ±5–10%
hCA VII, sequence (P43166 whole entry): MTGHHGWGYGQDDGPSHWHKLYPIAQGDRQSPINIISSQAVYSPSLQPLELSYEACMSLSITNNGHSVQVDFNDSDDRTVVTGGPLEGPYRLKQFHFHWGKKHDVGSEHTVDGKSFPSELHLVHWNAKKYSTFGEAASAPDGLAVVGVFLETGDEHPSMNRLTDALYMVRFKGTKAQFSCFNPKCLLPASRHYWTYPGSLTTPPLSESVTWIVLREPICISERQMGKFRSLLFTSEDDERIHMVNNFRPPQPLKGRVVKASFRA

[5] = molecular target: hCA XII (Homo sapiens, UniProt O43570); details: read-out: KI hCA XII; stopped-flow CO2 hydrase assay; mean from three different assays, errors ±5–10%
hCA XII, sequence (O43570 25-354): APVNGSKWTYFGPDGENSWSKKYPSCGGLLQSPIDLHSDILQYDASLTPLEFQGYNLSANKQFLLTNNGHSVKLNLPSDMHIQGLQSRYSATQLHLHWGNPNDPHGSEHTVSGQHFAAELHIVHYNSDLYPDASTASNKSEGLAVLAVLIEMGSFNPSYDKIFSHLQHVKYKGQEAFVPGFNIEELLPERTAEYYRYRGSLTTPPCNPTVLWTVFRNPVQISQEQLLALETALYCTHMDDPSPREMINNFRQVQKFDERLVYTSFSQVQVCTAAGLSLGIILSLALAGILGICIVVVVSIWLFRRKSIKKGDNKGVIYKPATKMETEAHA

[6] = molecular target: hCA IV (Homo sapiens, UniProt P22748); details: read-out: KI hCA IV; stopped-flow CO2 hydrase assay; mean from three different assays, errors ±5–10%
hCA IV, sequence (P22748 19-312): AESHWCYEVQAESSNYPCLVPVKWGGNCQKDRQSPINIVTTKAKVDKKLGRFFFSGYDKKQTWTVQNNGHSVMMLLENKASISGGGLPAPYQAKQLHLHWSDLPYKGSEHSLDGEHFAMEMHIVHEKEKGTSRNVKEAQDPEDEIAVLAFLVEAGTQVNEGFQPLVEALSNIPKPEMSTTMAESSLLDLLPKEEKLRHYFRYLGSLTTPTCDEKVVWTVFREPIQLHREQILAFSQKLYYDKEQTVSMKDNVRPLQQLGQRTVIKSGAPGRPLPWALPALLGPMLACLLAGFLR

[7] = molecular target: hCA II (Homo sapiens, UniProt P00918); details: read-out: KI hCA II; stopped-flow CO2 hydrase assay; mean from three different assays, errors ±5–10%

hCA I, sequence (P00915 whole entry): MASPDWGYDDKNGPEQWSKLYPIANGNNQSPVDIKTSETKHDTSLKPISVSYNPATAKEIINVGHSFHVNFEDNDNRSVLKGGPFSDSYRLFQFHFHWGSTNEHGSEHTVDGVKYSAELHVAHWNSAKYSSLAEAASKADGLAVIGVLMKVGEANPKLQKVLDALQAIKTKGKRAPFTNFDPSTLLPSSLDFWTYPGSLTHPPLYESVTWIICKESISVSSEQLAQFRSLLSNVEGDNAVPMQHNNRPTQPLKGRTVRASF

Row | Ki [1] [nM] | Ki [2] [nM] | EC50 [3] | Ki [4] [nM] | Ki [5] [nM] | Ki [6] [nM] | Ki [7] [nM] | fold more active than its enantiomer, hCA IX [2] | SMILES
1 | 37 |  | > 100000 nM | 187 | 73 |  |  |  | NS(=O)(=O)c1ccc(N2CC[C@@H](NC(=O)Nc3ccccc3F)C2)nc1 [11a, (R)-6-(3-(3-(2-Fluorophenyl)ureido)pyrrolidin-1-yl)pyridine-3-sulfonamide]
2 | 788 | 737 | 74500 nM | 78.6 |  | 4020 |  |  | NS(=O)(=O)c1ccc(N2CC[C@@H](NC(=O)Nc3ccc(Cl)c(C(F)(F)F)c3)C2)nc1 [10a, (R)-6-(3-(3-(4-Chloro-3-(trifluoromethyl)phenyl)ureido)pyrrolidin-1-yl)pyridine-3-sulfonamide]
3 | 91.5 | 8.6 |  | 14.9 | 27.8 | 5220 | 42.9 |  | NS(=O)(=O)c1ccc(N2CC[C@H](NC(=S)Nc3ccc(C4c5ccc(O)cc5Oc5cc(O)ccc54)c(C(=O)O)c3)C2)nc1 [17b, (S)-2-(3,6-Dihydroxy-9H-xanthen-9-yl)-5-(3-(1-(5-sulfamoylpyridin-2-yl)pyrrolidin-3-yl)thioureido)benzoic Acid]
4 | 545 | 82 |  | 29.5 | 62.9 | 5720 | 400 |  | NS(=O)(=O)c1ccc(N2CC[C@H](NC(=O)Nc3ccc4c(c3)OCCO4)C2)nc1 [15b, (S)-6-(3-(3-(2,3-Dihydrobenzo[b][1,4]dioxin-6-yl)ureido)pyrrolidin-1-yl)pyridine-3-sulfonamide]
5 | 72.4 | 36.7 |  | 8.2 | 6.3 | 3900 | 27.4 |  | NS(=O)(=O)c1ccc(NC(=O)N[C@@H]2CCN(c3ccc(C(F)(F)F)cn3)C2)cc1 [45a, (R)-4-(3-(1-(5-(Trifluoromethyl)pyridin-2-yl)pyrrolidin-3-yl)ureido)benzenesulfonamide]
6 | 58.3 | 29.1 |  | 9.5 | 31.6 | 3510 | 8 |  | NS(=O)(=O)c1ccc(NC(=O)N[C@@H]2CCN(c3ccccn3)C2)cc1 [41a, (R)-4-(3-(1-(Pyridin-2-yl)pyrrolidin-3-yl)ureido)benzenesulfonamide]
7 |  | 245 | > 100000 nM | 76.9 | 407 |  |  |  | NS(=O)(=O)c1ccc(N2CC[C@@H](NC(=O)Nc3ccc(Oc4ccccc4)cc3)C2)nc1 [13a, (R)-6-(3-(3-(4-Phenoxyphenyl)ureido)pyrrolidin-1-yl)pyridine-3-sulfonamide]
8 | 76.2 | 26.9 |  | 8.7 | 9.1 | 8230 | 14.9 |  | NS(=O)(=O)c1ccc(NC(=O)N[C@H]2CCN(c3cccc([N+](=O)[O-])n3)C2)cc1 [43b, (S)-4-(3-(1-(6-Nitropyridin-2-yl)pyrrolidin-3-yl)ureido)benzenesulfonamide]
9 | 476 | 61.8 |  | 58.8 | 38.5 | 7860 | 310 |  | COc1ccccc1NC(=O)N[C@H]1CCN(c2ccc(S(N)(=O)=O)cn2)C1 [18b, (S)-6-(3-(3-(2-Methoxyphenyl)ureido)pyrrolidin-1-yl)pyridine-3-sulfonamide]
10 | 76 | 971 |  | 74.8 | 37.9 | 2100 | 6.1 |  | NS(=O)(=O)c1cccc(NC(=O)N[C@@H]2CCN(c3cccc([N+](=O)[O-])n3)C2)c1 [44a, (R)-3-(3-(1-(6-Nitropyridin-2-yl)pyrrolidin-3-yl)ureido)benzenesulfonamide]
11 | 19.5 | 27.5 |  | 78.8 | 49.3 | 36.6 | 513 |  | NS(=O)(=O)c1ccc(N2CC[C@@H](NC(=O)NS(=O)(=O)c3ccccc3)C2)nc1 [24a, (R)-6-(3-(3-(Phenylsulfonyl)ureido)pyrrolidin-1-yl)pyridine-3-sulfonamide]
12 | 9.6 | 126 |  | 8.1 | 8.2 | 2480 | 1.7 |  | NS(=O)(=O)c1cccc(NC(=O)N[C@@H]2CCN(c3ccccn3)C2)c1 [42a, (R)-3-(3-(1-(Pyridin-2-yl)pyrrolidin-3-yl)ureido)benzenesulfonamide]
13 | 87.2 | 193 |  | 17.7 | 48.4 | 9550 | 6.6 |  | NS(=O)(=O)c1cccc(NC(=O)N[C@H]2CCN(c3cccc([N+](=O)[O-])n3)C2)c1 [44b, (S)-3-(3-(1-(6-Nitropyridin-2-yl)pyrrolidin-3-yl)ureido)benzenesulfonamide]
14 | 8.7 | 1.4 |  | 15.6 | 9.3 | 1300 | 3.9 | over 100 fold | NS(=O)(=O)c1cccc(NC(=S)N[C@H]2CCN(c3cccc([N+](=O)[O-])n3)C2)c1 [38b, (S)-3-(3-(1-(6-Nitropyridin-2-yl)pyrrolidin-3-yl)thioureido)benzenesulfonamide]
15 | 54.5 | 1.3 |  | 7.7 | 8.8 | 3200 | 4.9 |  | NS(=O)(=O)c1ccc(NC(=S)N[C@H]2CCN(c3cccc([N+](=O)[O-])n3)C2)cc1 [37b, (S)-4-(3-(1-(6-Nitropyridin-2-yl)pyrrolidin-3-yl)thioureido)benzenesulfonamide]
16 | 68.6 | 54 |  | 12.8 | 8.6 | 9710 | 46.3 |  | NS(=O)(=O)c1ccc(NC(=O)N[C@H]2CCN(c3ccc(C(F)(F)F)cn3)C2)cc1 [45b, (S)-4-(3-(1-(5-(Trifluoromethyl)pyridin-2-yl)pyrrolidin-3-yl)ureido)benzenesulfonamide]
17 | 490 | 36.4 | 21900 nM | 55.1 |  |  |  |  | NS(=O)(=O)c1cccc(NC(=S)N[C@@H]2CCN(c3ccc(C(F)(F)F)cn3)C2)c1 [40a, (R)-3-(3-(1-(5-(Trifluoromethyl)pyridin-2-yl)pyrrolidin-3-yl)thioureido)benzenesulfonamide]

Row | SMILES | Ki [1] [nM] | Ki [2] [nM] | EC50 [3] | Ki [4] [nM] | Ki [5] [nM] | Ki [6] [nM] | Ki [7] [nM] | fold more active than its enantiomer, hCA IX [2]
18 | NS(=O)(=O)c1ccc(N2CC[C@@H](NC(=O)Nc3ccccc3Cl)C2)nc1 [12a, (R)-6-(3-(3-(2-Chlorophenyl)ureido)pyrrolidin-1-yl)pyridine-3-sulfonamide] | 82.5 | 316 | 11900 nM | 73.5 | 83.6 | 3000 |  | 
19 | NS(=O)(=O)c1ccc(NC(=S)N[C@H]2CCN(c3ccc(C(F)(F)F)cn3)C2)cc1 [39b, (S)-4-(3-(1-(5-(Trifluoromethyl)pyridin-2-yl)pyrrolidin-3-yl)thioureido)benzenesulfonamide] |  | 6 | 12500 nM | 15.7 | 9.4 | 9720 |  | 
20 | NS(=O)(=O)c1ccc(NC(=S)N[C@@H]2CCN(c3ccc(C(F)(F)F)cn3)C2)cc1 [39a, (R)-4-(3-(1-(5-(Trifluoromethyl)pyridin-2-yl)pyrrolidin-3-yl)thioureido)benzenesulfonamide] |  | 355 | 12500 nM and 12400 nM | 73.3 | 62.5 | 4970 |  | 

— paper PMC9940855, “First-in-Class Dual Hybrid Carbonic Anhydrase Inhibitors and Transient Receptor Potential Vanilloid 1 Agonists Revert Oxaliplatin-Induced Neuropathy” (Journal of Medicinal Chemistry, 2023)
